Laboratory results: publication PMC3024946, “Hydroxyproline-containing collagen analogs trigger the release and activation of collagen-sequestered proMMP-2 by competition with prodomain-derived peptide P33-42” (Fibrogenesis & Tissue Repair, 2011)
Entries after “also recorded” stand apart in the source; their conditions may differ.

What was measured:
[1] = biological target: T1, actMMP-9 / CI (Homo sapiens, UniProt P14780); experiment: SPR, competition of actMMP-9 binding to CI, nonactivating buffer; conditions: actMMP-9 (100 nM) binding to CI with 10× (GPO)10; PBS, 0.05% Tween 20
T1 construct: purchased Invitek
Description: (§1) Sensor chip preparations and SPR measurements were performed using a BiacoreX device and the Bia-evaluation software (version 3.2; Biacore, Uppsala, Sweden). The pepsin-resistant triple-helical part of human fibrillar CI (100 μg/ml) in 10 mM acetate coupling buffer, pH 4.8, was immobilized to a dextran matrix-sensor chip at a flow rate of 5 μl/min, resulting in 5,500 resonance units from CI covalently linked via its primary amino groups. The control flow cell was prepared using the coupling buffer without CI. Surfaces were activated and blocked as described previously. […] The effects of (GPO)10, GAP, (POG)5, (GPP)10 and P33-42 on MMP-2 and MMP-9 binding to CI and their enzymatic activity were determined by adding the binding competitors to the (pro- and act)MMP-2 and MMP-9 solution in 10- to 150-fold molar excesses. Effects independent of MMP-2 and MMP-9 activity were monitored in the presence of Ro 28-2653 (1 μM) during SPR analysis. […] Kinetic parameters were analyzed using the 1:1 binding model with drifting baseline and subtraction of the control flow cell binding from sensorgrams obtained with immobilized CI. Binding constants (Kd) were calculated from the association (ka) and dissociation rates (kd) obtained from individual binding curves at different concentrations. […]

[2] = biological target: T2, proMMP-2 / CI (Homo sapiens, UniProt P08253); experiment: SPR, competition of proMMP-2 binding to CI, MMP activity buffer; conditions: proMMP-2 (25-150 nM), 10-fold molar excess, no inhibitor
T2 construct: prodomain-containing proMMP-2 or proMMP-9; purchased Invitek
T2 sequence (P08253 30-660 limits assumed): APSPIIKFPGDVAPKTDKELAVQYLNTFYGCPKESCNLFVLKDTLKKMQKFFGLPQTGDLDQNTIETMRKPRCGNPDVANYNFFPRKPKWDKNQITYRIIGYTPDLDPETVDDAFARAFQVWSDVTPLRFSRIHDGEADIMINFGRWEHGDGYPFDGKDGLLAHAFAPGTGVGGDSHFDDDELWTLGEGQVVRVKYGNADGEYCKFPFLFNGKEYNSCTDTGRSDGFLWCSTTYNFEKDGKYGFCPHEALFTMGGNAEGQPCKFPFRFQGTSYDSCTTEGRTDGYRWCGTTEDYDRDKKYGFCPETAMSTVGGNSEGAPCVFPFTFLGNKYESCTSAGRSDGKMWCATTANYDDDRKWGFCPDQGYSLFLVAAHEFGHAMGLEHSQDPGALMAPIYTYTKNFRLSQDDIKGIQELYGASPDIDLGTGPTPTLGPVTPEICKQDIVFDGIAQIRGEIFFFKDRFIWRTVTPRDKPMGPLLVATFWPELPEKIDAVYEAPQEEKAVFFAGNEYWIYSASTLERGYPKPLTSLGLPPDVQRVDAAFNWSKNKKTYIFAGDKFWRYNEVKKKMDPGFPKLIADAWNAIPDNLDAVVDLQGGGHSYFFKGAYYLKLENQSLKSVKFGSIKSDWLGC
Description: as §1

[3] = biological target: T2, proMMP-2 / CI; experiment: SPR, competition of proMMP-2 binding to CI, nonactivating buffer
Description: as §1

[4] = test system: ProMMP-2; experiment: DQ-gelatine degradation assay with MMP-2; assay type: biochemical, human; conditions: 5 h at 25°C
Description: Enzymatic activities of MMPs were studied spectrofluorimetrically by cleavage of fluorogenic substrates in MMP activity buffer within 2 to 5 h. For gelatinases 800 nM MCA-Pro-Leu-Gly-Leu-Dnp-Dap-Ala-Arg-NH2 (λex/em 328/393 nm; Bachem, Bubendorf, Switzerland) or 10 μg/ml DQ-gelatine were used, according to the method described by Knight et al. for collagenases 800 nM MCA-Pro-Cha-Gly-Nva-His-Ala-Dpa-NH2 (λex/em 280/360 nm; Anaspec, San José, CA, USA). In some experiments, proMMP-2 was fully activated in the presence of 1 mM APMA prior to the kinetic measurements. A quantity of 50 ng pro- or actMMP-2 alone or mixed with 10- to 150-fold molar excesses of (GPO)10, GAP, P33-42 or mixtures of (GPO)10 and P33-42, were added to CI-coated, BSA-coated (1 μg/well both) or uncoated wells containing 150 μl of the respective substrate solution. The peptide P33-42 was purchased from the Institute of Biochemistry (Humboldt-University, Berlin, Germany). The influence of CI on MMP-2 enzymatic activity against the quenched fluorescent substrate could be excluded. Background subtraction (measurement without MMPs) was applied to all curves. All experiments were performed with a fluorescence microplate reader (Molecular Devices, Sunnyvale, CA, USA) and black 96-well microtiter plates with a clear bottom (Greiner bio-one, Frickenhausen, Germany).

[5] = test system: Cy2-proMMP-2 bound to cirrhotic human liver tissue; experiment: Release / prevention of binding of Cy2-proMMP-2 in cirrhotic liver sections; conditions: 10-fold molar excess, fluorescence microscopy
Description: ProMMP-2 was labeled using the FluoroLink Cy2 Labeling Kit according to the manufacturer's instructions (Amersham Biosciences, Freiburg, Germany). Unbound fluorescent dye was removed by ultrafiltration (Nanosep, Lund, Sweden), and labeling success was monitored using a fluorescence microplate reader (λex/em, 489/506 nm). Serial cirrhotic human liver sections were covered with 1.2 μg/ml Cy2-proMMP-2 in 50 mM Tris·HCl, pH 7.4, containing 1 mM CaCl2 or with buffer alone, and were incubated in a dark humidified chamber for 24 h at 4°C. To study effects of (GPO)10, a 10-fold molar excess in relation to proMMP-2 was added to slides prior to or after Cy2-proMMP-2 binding. Slides were washed with PBS, air-dried, and rinsed with deionized water. Bound Cy2-proMMP-2 was detected by fluorescence microscopy (Olympus, Hamburg, Germany).

T1 sequence (P14780 107-707 limits assumed): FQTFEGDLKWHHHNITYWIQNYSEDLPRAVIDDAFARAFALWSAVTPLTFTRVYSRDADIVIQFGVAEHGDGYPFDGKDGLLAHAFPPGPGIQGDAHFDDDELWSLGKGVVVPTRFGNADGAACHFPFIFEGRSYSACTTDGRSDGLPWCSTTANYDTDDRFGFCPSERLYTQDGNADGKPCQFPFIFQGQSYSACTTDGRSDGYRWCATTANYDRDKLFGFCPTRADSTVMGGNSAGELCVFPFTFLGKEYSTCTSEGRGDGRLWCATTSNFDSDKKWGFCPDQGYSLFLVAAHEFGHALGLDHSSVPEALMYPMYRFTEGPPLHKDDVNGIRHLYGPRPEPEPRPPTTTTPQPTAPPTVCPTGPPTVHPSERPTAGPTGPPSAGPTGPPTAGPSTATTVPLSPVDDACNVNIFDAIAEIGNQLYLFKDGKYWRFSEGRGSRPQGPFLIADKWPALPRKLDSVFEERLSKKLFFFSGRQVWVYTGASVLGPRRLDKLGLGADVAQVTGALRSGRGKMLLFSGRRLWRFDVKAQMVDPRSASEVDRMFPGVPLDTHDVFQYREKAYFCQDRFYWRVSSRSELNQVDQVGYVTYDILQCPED

H-Gly-Cys-Hyp-(Gly-Pro-Hyp)10-Gly-Cys-Hyp-Gly-NH2 [(GPO)10, triple-helical Hyp-containing collagen analog]
Off rate [1]: 0.61 s⁻¹ | effect on SPR signal on CI [2]: reduction in resonance units below baseline levels | Off rate ([3]; proMMP-2 (100 nM) binding to CI with 10× (GPO)10, PBS, 0.05% Tween 20): 0.37 s⁻¹ | effect on binding to CI ([3]; proMMP-2, 10-fold molar excess): only slightly impaired | DQ-gelatine cleavage by proMMP-2 ([4]; 50- to 100-fold molar excesses): significantly enhanced | DQ-gelatine cleavage by proMMP-2 ([4]; 150-fold molar excess): shift from an active MMP-2 to an enzymatically blocked enzyme; also recorded: reduction of MMP-2 gelatinolytic activity | prevention of binding of Cy2-proMMP-2 ([5]; coincubation): prevented gelatinase binding | release of bound Cy2-proMMP-2 ([5]; subsequent treatment): promoted effective release of the sequestered enzyme
